Assay results as given in PubChem BioAssay (NCI).
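Protocol summary: plate cells (96-well), add compound at 5 concentrations, incubate 48 h, interpolate endpoints linearly. GI50 marks 50% less growth. At the TGI there is no net growth.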

Tests used:
Assay in all cases: growth of human tumour cells (NCI), 48 h
[1] = system: LOX IMVI melanoma
[2] = system: U251 CNS
[3] = system: EKVX NSCLC
[4] = system: A549 NSCLC
[5] = system: SK-MEL-28 melanoma
[6] = system: SNB-75 CNS
[7] = system: RXF 393 renal
[8] = system: NCI-H226 lung
[9] = system: MOLT-4 leukemia
[10] = system: MDA-MB-231 breast

Row | SMILES | TGI [1] [µM] | TGI [2] [µM] | TGI [3] [µM] | TGI [4] [µM] | TGI [5] [µM] | TGI [6] [µM] | TGI [7] [µM] | TGI [8] [µM] | TGI [9] [µM] | TGI [10] [µM] | GI50 [1] [µM] | GI50 [2] [µM] | GI50 [3] [µM] | GI50 [4] [µM] | GI50 [5] [µM] | GI50 [6] [µM] | GI50 [7] [µM] | GI50 [8] [µM] | GI50 [9] [µM] | GI50 [10] [µM]
1 | CC1=CCCC2C(C=O)(C1)CC(C)C2(CO)CC/C(=C/CO)CO (stereo not given) | > 100 | > 100 | > 100 | > 100 | > 100 | > 100 | > 100 | > 100 | > 100 | – | – | – | – | – | – | – | – | – | – | –
2 | Nc1c2ccccc2nc2c(C(=O)Nc3ccc(S(N)(=O)=O)cc3)cccc12 | > 100 | > 100 | > 100 | > 100 | > 100 | > 100 | > 100 | > 100 | 58.6 | – | – | – | – | – | – | – | – | – | – | –
3 | C[C@]12C[C@H](O)[C@H]3[C@@H](CCC4=CC(=O)CC[C@@]43C)[C@@H]1CC[C@@H]2c1csc(-c2ccccc2)n1 | > 100 | > 71.4 | > 100 | > 100 | > 100 | > 82.7 | > 100 | > 100 | – | > 77.8 | – | – | – | – | – | – | – | – | – | –
4 | CC(=O)Oc1ccc2c(c1)C(=O)c1nc(C)c(C)nc1C2=O | > 100 | > 100 | > 78.6 | > 100 | > 100 | > 100 | 96.4 | > 100 | > 100 | – | – | – | – | – | – | – | – | – | – | –
5 | COC(C)C(O)(C(=O)OCC1=CCN2CCC(O)C12)C(C)(C)O (stereo not given) | > 100 | > 100 | > 100 | > 100 | > 100 | > 100 | – | > 100 | > 100 | > 100 | – | – | – | – | – | – | – | – | – | –
6 | CN(N)c1nc(N)c(C#N)c(C#N)c1C#N | > 10 | > 10 | – | > 10 | > 10 | > 10 | – | – | > 10 | > 10 | – | – | – | – | – | – | – | – | – | –
7 | O=c1c2cc3ccccc3n2c(=O)c2cc3ccccc3n12 | > 100 | > 100 | > 100 | > 100 | > 100 | > 100 | > 100 | > 100 | > 100 | – | – | – | – | – | – | – | – | – | – | –
8 | C[CH2][Sn]([CH2]C)([O]C(=O)c1ccc(F)cc1)[O]C(=O)c1ccc(F)cc1 | 37.9 | 42 | > 100 | > 100 | 34.8 | 33.5 | 28.8 | 29.4 | > 85.1 | – | 18 | 19 | > 100 | > 100 | 18.6 | 17.9 | 13.7 | 15.5 | 26.7 | –
9 | COC(=O)N[C@H]1CCc2c(Cl)c(OC)c(OC)c(OC)c2-c2ccc(SC)c(=O)cc21 | 18.6 | > 40.5 | 96.9 | > 100 | 46 | > 81.2 | – | 14.2 | > 76.8 | 11.9 | < 0.01 | < 0.01 | < 0.01 | < 0.01 | 8.52 | < 0.01 | – | < 0.01 | < 0.01 | < 0.01
10 | CC[PH+](CC)CC.[Cl][Au] | 2.91 | 5.14 | 2.91 | 44.4 | 2.35 | 6.99 | 1.66 | 9.32 | 2.69 | – | 1.4 | 1.95 | 1.42 | 15.5 | 0.78 | 2.3 | 0.447 | 4.49 | 0.682 | –
